What was measured:
GluN1-1a S132A/GluN2B WT [1] = target: T1, GluN1-1a S132A/GluN2B WT (Rattus norvegicus, UniProt P35439+Q00960, S132A); conditions: GluN1-1a S132A
GluN1-1a L135N/GluN2B WT [2] = target: T2, GluN1-1a L135N/GluN2B WT (Rattus norvegicus, UniProt P35439+Q00960, L135N); assay: cell-based
GluN1-1a WT/GluN2B Q110A [3] = target: T3, GluN1-1a WT/GluN2B Q110A (Rattus norvegicus, UniProt P35439+Q00960, Q110A); assay: cell-based
GluN1-1a WT/GluN2B F176Y [4] = target: T4, GluN1-1a WT/GluN2B F176Y (Rattus norvegicus, UniProt P35439+Q00960, F176Y); conditions: GluN2B F176Y
GluN1-1a WT/GluN2B F176A [5] = target: T5, GluN1-1a WT/GluN2B F176A (Rattus norvegicus, UniProt P35439+Q00960, F176A); conditions: GluN2B F176A
T5 sequence (Q00960 27-1482 F176A, other chains not shown): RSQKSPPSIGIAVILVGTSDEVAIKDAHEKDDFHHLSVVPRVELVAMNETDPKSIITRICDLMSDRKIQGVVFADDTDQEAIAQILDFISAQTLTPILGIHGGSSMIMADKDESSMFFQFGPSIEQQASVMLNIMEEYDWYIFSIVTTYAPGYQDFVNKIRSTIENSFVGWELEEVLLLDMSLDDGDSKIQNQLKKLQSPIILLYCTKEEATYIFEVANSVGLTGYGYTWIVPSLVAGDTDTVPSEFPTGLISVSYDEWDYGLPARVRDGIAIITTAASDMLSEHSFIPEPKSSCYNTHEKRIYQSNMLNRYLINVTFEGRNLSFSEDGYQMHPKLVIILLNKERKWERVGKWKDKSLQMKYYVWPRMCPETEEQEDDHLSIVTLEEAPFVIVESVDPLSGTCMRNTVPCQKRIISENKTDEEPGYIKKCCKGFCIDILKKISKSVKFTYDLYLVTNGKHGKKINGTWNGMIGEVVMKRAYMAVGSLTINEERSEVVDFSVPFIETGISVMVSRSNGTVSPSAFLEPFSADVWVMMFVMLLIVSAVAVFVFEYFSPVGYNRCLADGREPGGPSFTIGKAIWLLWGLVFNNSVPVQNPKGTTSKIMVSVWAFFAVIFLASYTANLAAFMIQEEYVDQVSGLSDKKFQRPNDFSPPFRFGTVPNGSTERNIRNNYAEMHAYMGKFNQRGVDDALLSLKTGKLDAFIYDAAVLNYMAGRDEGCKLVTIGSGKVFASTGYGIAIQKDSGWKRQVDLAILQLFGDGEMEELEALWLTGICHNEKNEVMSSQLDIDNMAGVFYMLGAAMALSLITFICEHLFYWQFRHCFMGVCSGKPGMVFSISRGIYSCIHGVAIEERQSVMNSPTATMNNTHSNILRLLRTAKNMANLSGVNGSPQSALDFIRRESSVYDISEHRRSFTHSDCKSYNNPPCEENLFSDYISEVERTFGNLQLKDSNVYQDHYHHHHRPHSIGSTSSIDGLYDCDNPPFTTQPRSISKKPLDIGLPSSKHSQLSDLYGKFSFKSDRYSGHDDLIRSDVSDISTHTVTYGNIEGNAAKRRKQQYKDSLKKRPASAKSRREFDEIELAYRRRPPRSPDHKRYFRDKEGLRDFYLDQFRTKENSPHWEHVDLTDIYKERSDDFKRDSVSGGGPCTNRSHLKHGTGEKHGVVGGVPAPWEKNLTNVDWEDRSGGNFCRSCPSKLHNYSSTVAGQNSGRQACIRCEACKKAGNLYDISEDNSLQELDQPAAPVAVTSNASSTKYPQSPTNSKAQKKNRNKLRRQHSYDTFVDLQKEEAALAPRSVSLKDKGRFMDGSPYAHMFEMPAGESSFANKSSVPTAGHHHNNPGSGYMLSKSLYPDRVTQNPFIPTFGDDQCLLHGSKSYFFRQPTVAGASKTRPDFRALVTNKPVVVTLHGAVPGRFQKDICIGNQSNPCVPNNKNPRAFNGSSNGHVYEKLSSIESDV

GluN1-1a WT/GluN2B F176A [6] = target: T5, GluN1-1a WT/GluN2B F176A; assay: cell-based
GluN1-1a WT/GluN2B Q110A [7] = target: T3, GluN1-1a WT/GluN2B Q110A; conditions: GluN2B Q110A
GluN1-1a WT/GluN2B F176Y [8] = target: T4, GluN1-1a WT/GluN2B F176Y; assay: cell-based
GluN1-1a S132A/GluN2B WT [9] = target: T1, GluN1-1a S132A/GluN2B WT; assay: cell-based
[10] = target: GluN1-1a/GluN2B NMDAR (wildtype) (Rattus norvegicus, UniProt P35439+Q00960); type: cell-based
GluN1-1a WT/GluN2B I111A [11] = target: T6, GluN1-1a WT/GluN2B I111A (Rattus norvegicus, UniProt P35439+Q00960, I111A); conditions: GluN2B I111A
GluN1-1a/GluN2A NMDAR = GluN1-1a/GluN2A NMDAR (Rattus norvegicus, UniProt P35439+Q00959); assay: cell-based; conditions: read-out: ion current inhibition % ± SEM, GluN2A
GluN1-1a Y109S/GluN2B WT [12] = target: T7, GluN1-1a Y109S/GluN2B WT (Rattus norvegicus, UniProt P35439+Q00960, Y109S); conditions: GluN1-1a Y109S
T7 sequence (Q00960 27-1482, other chains not shown): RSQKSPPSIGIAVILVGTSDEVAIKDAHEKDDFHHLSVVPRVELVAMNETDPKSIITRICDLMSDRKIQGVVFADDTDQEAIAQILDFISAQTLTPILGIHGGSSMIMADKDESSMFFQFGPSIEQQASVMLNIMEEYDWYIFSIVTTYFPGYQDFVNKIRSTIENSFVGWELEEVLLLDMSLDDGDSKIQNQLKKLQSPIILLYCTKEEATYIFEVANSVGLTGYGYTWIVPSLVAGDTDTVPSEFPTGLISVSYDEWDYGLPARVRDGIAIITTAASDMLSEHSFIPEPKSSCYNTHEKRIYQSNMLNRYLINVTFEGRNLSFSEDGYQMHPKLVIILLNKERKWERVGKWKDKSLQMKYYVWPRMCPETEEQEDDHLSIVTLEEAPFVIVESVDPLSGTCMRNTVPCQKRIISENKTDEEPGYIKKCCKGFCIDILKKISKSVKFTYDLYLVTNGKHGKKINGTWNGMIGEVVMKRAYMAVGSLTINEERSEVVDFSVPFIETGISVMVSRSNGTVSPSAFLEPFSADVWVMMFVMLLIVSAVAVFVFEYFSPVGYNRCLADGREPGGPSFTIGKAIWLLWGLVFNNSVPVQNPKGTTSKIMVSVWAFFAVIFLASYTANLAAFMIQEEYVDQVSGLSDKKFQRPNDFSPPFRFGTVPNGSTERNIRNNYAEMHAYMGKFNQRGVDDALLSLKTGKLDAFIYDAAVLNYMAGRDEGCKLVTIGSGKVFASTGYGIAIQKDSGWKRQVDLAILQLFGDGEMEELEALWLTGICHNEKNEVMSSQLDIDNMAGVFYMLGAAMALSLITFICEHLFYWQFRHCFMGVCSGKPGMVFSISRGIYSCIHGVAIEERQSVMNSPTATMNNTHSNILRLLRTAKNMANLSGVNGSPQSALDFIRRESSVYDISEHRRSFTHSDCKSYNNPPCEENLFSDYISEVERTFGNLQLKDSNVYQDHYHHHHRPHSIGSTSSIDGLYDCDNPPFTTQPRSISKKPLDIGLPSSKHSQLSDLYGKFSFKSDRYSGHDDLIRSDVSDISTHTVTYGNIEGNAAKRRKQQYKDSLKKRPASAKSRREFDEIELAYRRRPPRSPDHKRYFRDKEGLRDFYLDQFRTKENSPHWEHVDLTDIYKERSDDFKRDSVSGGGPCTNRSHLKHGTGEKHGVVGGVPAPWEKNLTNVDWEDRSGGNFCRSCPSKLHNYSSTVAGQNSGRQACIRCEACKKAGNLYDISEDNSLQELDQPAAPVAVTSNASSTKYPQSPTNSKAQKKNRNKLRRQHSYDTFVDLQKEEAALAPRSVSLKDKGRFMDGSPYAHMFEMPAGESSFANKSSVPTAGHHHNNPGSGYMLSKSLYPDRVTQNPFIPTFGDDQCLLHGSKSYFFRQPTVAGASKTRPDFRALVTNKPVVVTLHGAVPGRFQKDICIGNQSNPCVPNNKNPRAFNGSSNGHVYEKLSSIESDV

GluN1-1a WT/GluN2B F114A [13] = target: T8, GluN1-1a WT/GluN2B F114A (Rattus norvegicus, UniProt P35439+Q00960, F114A); assay: cell-based
T8 sequence (Q00960 27-1482 F114A, other chains not shown): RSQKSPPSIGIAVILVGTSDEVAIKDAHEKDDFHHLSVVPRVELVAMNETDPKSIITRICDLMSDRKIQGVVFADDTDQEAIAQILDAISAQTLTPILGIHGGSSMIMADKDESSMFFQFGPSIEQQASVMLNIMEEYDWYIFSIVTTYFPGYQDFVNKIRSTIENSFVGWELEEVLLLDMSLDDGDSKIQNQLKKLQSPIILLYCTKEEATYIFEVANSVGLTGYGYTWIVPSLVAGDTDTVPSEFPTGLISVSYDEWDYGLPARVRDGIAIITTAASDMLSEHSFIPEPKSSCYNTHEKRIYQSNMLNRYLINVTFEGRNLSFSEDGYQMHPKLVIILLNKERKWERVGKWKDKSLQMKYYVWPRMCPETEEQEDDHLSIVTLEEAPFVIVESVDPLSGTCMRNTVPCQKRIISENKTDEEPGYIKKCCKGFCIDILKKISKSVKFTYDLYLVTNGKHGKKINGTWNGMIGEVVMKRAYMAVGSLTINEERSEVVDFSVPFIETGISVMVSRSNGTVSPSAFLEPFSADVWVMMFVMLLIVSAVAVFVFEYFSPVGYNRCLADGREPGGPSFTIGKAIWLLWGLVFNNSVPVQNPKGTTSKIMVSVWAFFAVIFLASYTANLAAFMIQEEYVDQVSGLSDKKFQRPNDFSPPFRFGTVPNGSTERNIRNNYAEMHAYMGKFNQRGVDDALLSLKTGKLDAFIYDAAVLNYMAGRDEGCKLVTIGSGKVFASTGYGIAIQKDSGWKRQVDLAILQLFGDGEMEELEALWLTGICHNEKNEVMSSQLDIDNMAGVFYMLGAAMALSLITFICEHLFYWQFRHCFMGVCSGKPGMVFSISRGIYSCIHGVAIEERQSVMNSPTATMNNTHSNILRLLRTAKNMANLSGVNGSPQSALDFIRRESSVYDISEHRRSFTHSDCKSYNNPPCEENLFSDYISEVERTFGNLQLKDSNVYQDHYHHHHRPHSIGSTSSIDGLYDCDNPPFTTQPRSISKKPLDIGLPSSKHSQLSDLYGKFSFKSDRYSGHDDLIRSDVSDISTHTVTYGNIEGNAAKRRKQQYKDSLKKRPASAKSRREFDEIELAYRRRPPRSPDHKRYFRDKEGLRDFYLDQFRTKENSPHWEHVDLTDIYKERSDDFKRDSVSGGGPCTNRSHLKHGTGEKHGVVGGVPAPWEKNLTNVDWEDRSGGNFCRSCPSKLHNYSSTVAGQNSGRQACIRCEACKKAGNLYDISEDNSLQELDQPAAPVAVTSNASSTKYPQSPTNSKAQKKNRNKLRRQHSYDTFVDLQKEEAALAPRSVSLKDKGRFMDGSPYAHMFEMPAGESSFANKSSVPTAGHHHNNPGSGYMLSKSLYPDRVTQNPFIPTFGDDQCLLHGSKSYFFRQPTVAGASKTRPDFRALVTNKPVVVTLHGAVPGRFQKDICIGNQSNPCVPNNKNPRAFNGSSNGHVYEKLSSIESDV

GluN1-1a Y109S/GluN2B WT [14] = target: T7, GluN1-1a Y109S/GluN2B WT; assay: cell-based
GluN1-1a WT/GluN2B I111A [15] = target: T6, GluN1-1a WT/GluN2B I111A; assay: cell-based
GluN1-1a WT/GluN2B E236A = GluN1-1a WT/GluN2B E236A (Rattus norvegicus, UniProt P35439+Q00960, E236A); conditions: GluN2B E236A
GluN1-1a L135N/GluN2B WT [16] = target: T2, GluN1-1a L135N/GluN2B WT; conditions: GluN1-1a L135N
GluN1-1a/GluN2D NMDAR = GluN1-1a/GluN2D NMDAR (Rattus norvegicus, UniProt P35439+Q62645); assay: cell-based; conditions: read-out: ion current inhibition % ± SEM, GluN2D
[17] = target: T9, GluN1-1a/GluN2B (ifenprodil binding site) (Homo sapiens, UniProt Q05586+Q13224); conditions: displacement of [3H]ifenprodil; Ki values previously published; read-out: Ki + SEM; cited from earlier work
T9 construct: expressed in transfected cells; host or cells: mouse L(tk) cells, dexamethasone-inducible expression; membrane fraction

GluN1-1a/GluN2C NMDAR = GluN1-1a/GluN2C NMDAR (Rattus norvegicus, UniProt P35439+Q00961); assay: cell-based; conditions: read-out: ion current inhibition % ± SEM, GluN2C
GluN1-1a F113S/GluN2B WT [18] = target: T10, GluN1-1a F113S/GluN2B WT (Rattus norvegicus, UniProt P35439+Q00960, F113S); conditions: GluN1-1a F113S
GluN1-1a WT/GluN2B F114A [19] = target: T8, GluN1-1a WT/GluN2B F114A; conditions: GluN2B F114A
GluN1-1a F113S/GluN2B WT [20] = target: T10, GluN1-1a F113S/GluN2B WT; assay: cell-based
[21] = maximum inhibition fixed to wildtype value

For `Oc1ccc2c(c1)CCN(CCCCc1ccccc1)C[C@H]2O` [compound (S)-1], the “p (slope)” value (GluN1-1a S132A/GluN2B WT [1]) was 1.16, the “A2 ± SE” value (GluN1-1a S132A/GluN2B WT [1]; flexible A2) was 89 ± 1% and the IC50 (GluN1-1a L135N/GluN2B WT [2]) was 3.66 ± 1.18 µM. For the same molecule, the IC50 (GluN1-1a WT/GluN2B Q110A [3]) was 0.243 ± 0.034 µM, the “p (slope)” value (GluN1-1a WT/GluN2B F176Y [4]) was 0.82 and the “A2, fixed-to-wildtype (*)” value (GluN1-1a WT/GluN2B F176Y [4]; [21]) was 95%. For the same molecule, the “p (slope)” value (GluN1-1a WT/GluN2B F176A [5]) was 1.00, the “A2, fixed-to-wildtype (*)” value (GluN1-1a WT/GluN2B F176A [5]; [21]) was 95% and the IC50 (GluN1-1a WT/GluN2B F176A [6]) was 15.5 ± 1.79 µM. For the same molecule, the “p (slope)” value (GluN1-1a WT/GluN2B Q110A [7]) was 1.27, the “A2 ± SE” value (GluN1-1a WT/GluN2B Q110A [7]; flexible A2) was 94 ± 2% and the IC50 (GluN1-1a WT/GluN2B F176Y [8]) was 0.261 ± 0.025 µM. The IC50 (GluN1-1a S132A/GluN2B WT [9]) was 0.691 ± 0.044 µM, the IC50 ([10]; TEVC, holding potential −70 mV, 10 µM glycine and 10 µM (S)-glutamate, wildtype, read-out: IC50 ± SE) was 0.206 ± 0.023 µM and the “p (slope of the dose-response curve)” value ([10]; TEVC, −70 mV, wildtype) was 0.98. For the same molecule, the “A2 ± SE (maximum inhibition from dose-response curve)” value ([10]; TEVC, −70 mV, wildtype, flexible A2) was 95 ± 2%, the inhibition at 10 µM ([10]; read-out: ion current inhibition % ± SEM, GluN2B) was 93 ± 1% and the “p (slope)” value (GluN1-1a WT/GluN2B I111A [11]) was 0.89. For the same molecule, the “A2 ± SE” value (GluN1-1a WT/GluN2B I111A [11]; flexible A2) was 73 ± 6%, the inhibition at 10 µM (GluN1-1a/GluN2A NMDAR) was 6 ± 2% and the “p (slope)” value (GluN1-1a Y109S/GluN2B WT [12]) was 0.85. For the same molecule, the “A2 ± SE” value (GluN1-1a Y109S/GluN2B WT [12]; flexible A2) was 79 ± 4%, the IC50 (GluN1-1a WT/GluN2B F114A [13]) was 38.9 ± 5.28 µM and the IC50 (GluN1-1a Y109S/GluN2B WT [14]) was 0.764 ± 0.189 µM. The IC50 (GluN1-1a WT/GluN2B I111A [15]) was 1.56 ± 0.504 µM, the “p (slope)” value (GluN1-1a WT/GluN2B E236A) was 0.99 and the “A2 ± SE” value (GluN1-1a WT/GluN2B E236A; flexible A2) was 96 ± 8%. The “p (slope)” value (GluN1-1a L135N/GluN2B WT [16]) was 0.98, the “A2 ± SE” value (GluN1-1a L135N/GluN2B WT [16]; flexible A2) was 68 ± 7% and the inhibition at 10 µM (GluN1-1a/GluN2D NMDAR) was 21 ± 3%. The Ki [17] was 0.74 ± 0.061 µM, the inhibition at 10 µM (GluN1-1a/GluN2C NMDAR) was 19 ± 2% and the “p (slope)” value (GluN1-1a F113S/GluN2B WT [18]) was 0.87. The “A2 ± SE” value (GluN1-1a F113S/GluN2B WT [18]; flexible A2) was 89 ± 4%, the “p (slope)” value (GluN1-1a WT/GluN2B F114A [19]) was 1.26 and the “A2, fixed-to-wildtype (*)” value (GluN1-1a WT/GluN2B F114A [19]; [21]) was 95%. For the same molecule, the IC50 (GluN1-1a F113S/GluN2B WT [20]) was 0.756 ± 0.137 µM.

Reference: paper PMC6858350, “A common mechanism allows selective targeting of GluN2B subunit-containing N-methyl-D-aspartate receptors” (Communications Biology, 2019)
